Earlier results as cited in patent publication US20060193908A1, “Extended release formulations of poorly soluble antibiotics” (priority 2004, published 2006).

Conditions: USP 27/NF 22 listing

CC[C@H]1OC(=O)[C@H](C)[C@@H](O[C@H]2C[C@@](C)(OC)[C@@H](O)[C@H](C)O2)[C@H](C)[C@@H](O[C@@H]2O[C@H](C)C[C@H](N(C)C)[C@H]2O)[C@](C)(OC)C[C@@H](C)C(=O)[C@H](C)[C@@H](O)[C@]1(C)O [clarithromycin, Clarithromycin]
solubility in water (USP descriptive term): practically insoluble in water
